Assay results from patent US5001129A, “Oxazoloquinoline compounds and therapeutic application thereof” (Delalande S.A., priority 1987, dated 1991).

How the values were obtained:
[1] = test system: effects of serotonin (precursor hydroxy-5 tryptophan, 5-HTP); assay: potentiation of hydroxy-5 tryptophan (5-HTP): generalised trembling or stereotypies in rats; conditions: Rattus norvegicus, oral, 1 h before 120 mg/kg i.p. 5-HTP, generalised trembling or stereotypies in 50% of the animals, read-out: Test in vivo ED50
Procedure: in vivo by determining in rats the dose of the product which, administered orally, causes in 50% of the animals (ED50) the appearance of generalised trembling or stereotypies (finger-tapping as on a piano, movements of the head) following the intraperitoneal administration 1 h after the first treatment of a dose of 120 mg/kg of hydroxy-5 tryptophan (5-HTP) [M. JALFRE, B. BUCHER, A. COSTON, G. MOCQUET, R. D. PORSOLT, Arch. Int. Pharmacodyn., (1982), 259, 194-221].

monoamine oxydase = biological target: T1, monoamine oxydase (Rattus norvegicus, UniProt P21396); assay: inhibition of the activity of the monoamine oxydase in vitro on homogenates of rat brain (serotonin as substrate); type: biochemical; conditions: serotonin as substrate at 480 μM, read-out: Test in vitro IC50
T1 construct: in vitro on homogenates of rat brain; from tissue; host or cells: rat brain homogenate
T1 sequence (P21396 1-526): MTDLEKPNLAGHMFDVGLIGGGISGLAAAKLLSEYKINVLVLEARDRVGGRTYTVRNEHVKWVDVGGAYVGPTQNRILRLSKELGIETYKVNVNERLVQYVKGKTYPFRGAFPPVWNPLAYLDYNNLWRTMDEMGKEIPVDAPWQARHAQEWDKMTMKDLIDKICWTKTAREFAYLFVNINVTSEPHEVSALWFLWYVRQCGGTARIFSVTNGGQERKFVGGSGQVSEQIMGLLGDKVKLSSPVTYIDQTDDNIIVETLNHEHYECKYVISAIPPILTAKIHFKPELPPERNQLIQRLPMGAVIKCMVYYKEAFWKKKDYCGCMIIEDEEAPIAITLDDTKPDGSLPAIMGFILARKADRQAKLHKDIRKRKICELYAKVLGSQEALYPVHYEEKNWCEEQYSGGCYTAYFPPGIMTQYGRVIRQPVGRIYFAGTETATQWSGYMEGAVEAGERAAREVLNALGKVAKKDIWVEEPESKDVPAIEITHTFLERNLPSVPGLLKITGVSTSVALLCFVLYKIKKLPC
Procedure: in vitro on homogenates of rat brain, by measuring the concentration of the product inhibiting by 50% (IC50) the activity of the monoamine oxydase utilising serotonin as substrate at 480 μM, according to the method described by M. STROLIN BENEDETTI. T. BOUCHER and C. J. FOWLER in Naunyn--Schmiedebergs Archiv. of Pharm. (1983) 323, 315-320;

LD50 in mice, oral = conditions: mouse, in vivo

SMILES	ED50 [1]	IC50 (monoamine oxydase)	LD50 (LD50 in mice, oral)
C[C@@H]1OC(=O)N2c3ccccc3CC[C@@H]12 (relative stereo) [MD 280430, trans methyl-3 tetrahydro-3,3a,4,5 1 H-oxazolo [3,4-a] quinoline-one-1]	105 mg/kg	1400 nM	–
COC[C@H]1OC(=O)N2c3ccccc3CC[C@@H]12 (relative stereo) [MD 200682, cis methoxymethyl-3 tetrahydro-3,3a,4,5 1H oxazolo [3,4-a] quinoline-one-1]	2.3 mg/kg	90 nM	–
CNC[C@@H]1OC(=O)N2c3ccc(OC)cc3CC[C@@H]12 (relative stereo) [MD 370027]	5.8 mg/kg	–	–
CNC[C@H]1OC(=O)N2c3ccc(OC)cc3CC[C@@H]12 (relative stereo) [MD 370026]	–	–	263 mg/kg
C=C[C@H]1OC(=O)N2c3ccccc3CC[C@@H]12 (relative stereo) [MD 200502, ethenyl-3 tetrahydro-3,3a,4,5 1H-oxazolo [3,4-a] quinoline-one-1]	–	500 nM	–
COc1ccc2c(c1)CC[C@H]1[C@@H](CN)OC(=O)N21 (relative stereo) [MD 370024, cis aminomethyl-3 methoxy-7 tetrahydro-3,3a,4,5 1H-oxazolo [3,4-a] quinoline-one-2]	–	1000 nM	–
O=C1O[C@H](CO)[C@@H]2CCc3ccc(Cl)cc3N12 (relative stereo) [MD 370336]	–	80 nM	–
COc1ccc2c(c1)CC[C@H]1[C@H](CN)OC(=O)N21 (relative stereo) [MD 370025]	–	1600 nM	–
O=C1O[C@H](CO)[C@@H]2Cc3ccccc3N12 (relative stereo) [MD 200602]	–	2800 nM	–
C=C[C@@H]1OC(=O)N2c3ccc(OC)cc3CC[C@@H]12 (relative stereo) [MD 280404, ethenyl-3 methoxy-7 tetrahydro-3,3a, 4,5 1H-oxazolo [3.4-a] quinoline-one-1]	11 mg/kg	29 nM	–
O=C1O[C@@H](CO)[C@@H]2CCc3ccc(Cl)cc3N12 (relative stereo) [MD 370335]	–	97 nM	–
COc1ccc2c(c1)CC[C@H]1[C@@H](CO)OC(=O)N21 (relative stereo) [MD 280386, cis hydroxymethyl-3 methoxy-7 tetrahydro-3,3a,4,5 1H-oxazino [3, 4a] quinoline-one-1]	–	19 nM	–
O=C1O[C@@H](CO)[C@@H]2Cc3ccccc3N12 (relative stereo) [MD 200718]	–	8700 nM	–
COC[C@@H]1OC(=O)N2c3ccc(OC)cc3CC[C@@H]12 (relative stereo) [MD 280449]	–	6 nM	1120 mg/kg
COC[C@H]1OC(=O)N2c3ccc(OC)cc3CC[C@@H]12 (relative stereo) [MD 280448]	1.8 mg/kg	9 nM	–
COc1ccc2c(c1)CC[C@H]1[C@H](CO)OC(=O)N21 (relative stereo) [MD 280387]	–	75 nM	–
C=C[C@@H]1OC(=O)N2c3ccccc3CC[C@@H]12 (relative stereo) [MD 200503, ethenyl-3 tetrahydro-3,3a,4,5 1H-oxazolo [3,4-a] quinoline-one-1]	20 mg/kg	57 nM	–
O=C1O[C@H](CO)[C@@H]2CCc3ccccc3N12 (relative stereo) [MD 200504, cis hydroxymethyl-3 tetrahydro-3,3a,4,5 1H-oxazolo [3,4-a] quinoline-one-1]	7.8 mg/kg	–	–
